Several values for one entry are separate records, joined by “and”; a condition that tells them apart may be missing. Identical values can stand only once.
Columns and labels:
[1] = test system: nitrification of ammonium nitrogen in soil; assay: Soil nitrification inhibition test (Mountainview silt loam, banded); details: for % inhibition (nitrification) / Net mg NO2N / Net mg NO3N: 25° C, 410 mg urea + 41 mg inhibitor; for Nitrite accumulation in the soil: during the 5 weeks incubation, greater than with dicyandiamide
Description: Embodiment 2: The N-Halamine compounds were tested for nitrification inhibition using the soil testing procedure described below.
Mountainview silt loam soil was screened through a 2 mm sieve. Plexiglas containers (8×8×6 cm) were packed half full with the soil and packed to a bulk density of 1.0 g/cm^3 and wetted to field capacity (approximately 20 weight percent moisture). The urea 410 mg per container) and inhibitor (41 mg per container) were added in a narrow band (0.5 cm wide X 6 cm long), and additional soil was added to fill the containers. The total amount of dry soil added was 384 g. The containers were incubated at 25° C. During incubation the containers were checked periodically for moisture loss and additional water added as needed to maintain moisture levels.
The individual containers were removed from the incubator at 1, 2, 3, 4, and 5 week intervals. After removal from the incubator the contents of the container were transferred to a plastic bag and thoroughly mixed. A 10-g sample of soil (dry basis) was taken from the bag and extracted with 100 ml of 2 N KCL. The extract was filtered through Whatman #41 filter paper and refrigerated until analyzed. Samples were analyzed for NO3-N- NO2-N- and urea-N using a colorimetric procedure. Some samples also were analyzed for NH4-N.
The percent nitrification inhibition was calculated according to the method of Bundy and Bremner [G. L. Bundy and J. M. Bremner, Soil Sci. Soc. Am. Proc. 37, 396-398 (1973)]
% nitrification inhibition=[(C-S)/C]×100
where C=net amount of NO3-N produced in the control (no inhibitor added), and S=net amount of NO3-N produced in the inhibitor treated sample.
^a Concentrations are in net mg/container. All containers had 384 g
soil (dry), 410 mg urea (188.6 mg N) and 41 mg inhibitor. Samples were
extracted 10 g → 100 mls 2N KCl. The formulas used for calculation
where C = net NO3N produced in control (no inhibitor), S = net
NO3N produced in inhibitor treated sample, net NO3N =
(NO3N) - (soil NO3N), and net NO2N = (NO2N) - (soil
NO2N). Values are averages of two replicate samples.

[2] = molecular target: purified Jack Bean urease (Canavalia ensiformis, UniProt P07374); assay: Aqueous system (pH stat) urease inhibition test; assay type: biochemical; details: 25° C
purified Jack Bean urease, sequence (P07374 whole entry, looked up): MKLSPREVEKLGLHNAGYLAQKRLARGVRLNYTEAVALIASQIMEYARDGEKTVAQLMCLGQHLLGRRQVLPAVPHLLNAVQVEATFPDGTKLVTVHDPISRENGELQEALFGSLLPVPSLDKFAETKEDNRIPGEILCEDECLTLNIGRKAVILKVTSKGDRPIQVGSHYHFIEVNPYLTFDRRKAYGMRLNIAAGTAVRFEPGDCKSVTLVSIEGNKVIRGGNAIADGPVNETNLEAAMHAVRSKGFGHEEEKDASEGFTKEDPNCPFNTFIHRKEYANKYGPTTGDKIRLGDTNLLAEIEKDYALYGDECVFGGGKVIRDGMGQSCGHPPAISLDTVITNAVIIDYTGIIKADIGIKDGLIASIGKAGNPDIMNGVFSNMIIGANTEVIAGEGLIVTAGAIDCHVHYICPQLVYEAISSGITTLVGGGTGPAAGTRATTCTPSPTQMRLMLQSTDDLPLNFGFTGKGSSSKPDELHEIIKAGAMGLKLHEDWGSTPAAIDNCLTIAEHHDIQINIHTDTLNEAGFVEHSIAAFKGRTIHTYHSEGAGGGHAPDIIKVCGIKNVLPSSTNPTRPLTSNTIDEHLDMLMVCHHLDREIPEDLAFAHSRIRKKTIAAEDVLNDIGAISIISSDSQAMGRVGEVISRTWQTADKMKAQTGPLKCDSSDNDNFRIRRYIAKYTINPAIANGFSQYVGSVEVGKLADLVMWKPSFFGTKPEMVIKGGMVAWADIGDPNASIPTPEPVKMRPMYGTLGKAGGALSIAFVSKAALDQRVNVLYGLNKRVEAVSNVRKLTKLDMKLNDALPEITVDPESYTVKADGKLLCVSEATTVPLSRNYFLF
Description: (§1) Embodiment 1: Urease activity of inhibitor test compounds may be evaluated either in aqueous or in soil systems. When aqueous systems are used, urea plus a test compound with possible urease inhibition activity and relatively pure urease enzyme are incubated together to determine the effects of the test compound on urease-catalyzed hydrolysis of urea. When soil systems are used, urea and the test compound are added to moist soil, and the urease enzyme is supplied from the soil. The main disadvantage of using soil systems is that the true activity of test compounds may be masked because of reactions between the test compound and soil. Thus, basic studies for understanding chemical structure-activity relationships are usually done in aqueous systems.
Aqueous System (pH Stat) Test Procedure: The aqueous system urease inhibition tests were conducted at 25° C using purified Jack Bean urease enzyme, 50,000-80,000 units per gram, a unit of urease will liberate 1 umole of NH3 from urea per minute at pH 7.0 at 25° C.
An appropriate amount of inhibitor [such as 37.0 uL (microliters) of a 1.169×10^(-3) M (moles/liter) inhibitor solution] and 100 uL of a solution of 13.9130 mg Jack Bean urease enzyme in 10.00 mL of water were diluted to 25.00 mL. This combined solution was allowed to sit undisturbed at 23° C. for twenty (20) minutes. Then 20.0 uL of a preservative solution was added to prevent degradation of the urease enzyme during the course of the experiment. The preservative solution contained 5.655×10^-4 moles/liter ethylenediaminetetraacetic acid (disodium salt) and 1.166×10^-3) moles/liter dithiothreitol.
Immediately after the addition of the preservative solution to the inhibitor/urease solution, 800 uL of a 0.1246 M urea solution was added and a computer assisted titrimeter was started. This titrimeter maintained a constant pH of 6.97 during the course of the experiment by neutralizing the ammonia (resulting from urease hydrolysis of urea) with 0.01142 M hydrochloric acid (HCl). The volume (measured to 0.001 mL) of HCl added was automatically recorded every 15 seconds for up to 20.0 minutes or until a total volume of 2.500 mL of HCl was added.
Experiments also were conducted without inhibitor (blank) and with the inhibitor PPDA for comparison. The experiments were replicated, and the percent inhibition for each of the inhibitors at the various concentrations was calculated as follows:
% inhibition=(kinhibitor /kblank)×100 (4)
where kinhibitor and kblank are the average rates of HCl addition for the inhibitor and blank experiments, respectively. The rates of HCl addition were calculated by linear regression of the titration curves.

[3] = test system: soil urease (urease-active Hastings silt loam soil); assay: Banded soil system urease inhibition test (Hastings silt loam); details: 410 mg urea + 41 mg inhibitor
Description: as §1
Soil System Test Procedure: The soil system test procedure used was a modification of the previous procedures of other researchers L. A. Douglas and J. M. Bremner, Soil Biol. Biochem. 3, 309-315 (1971) and J. M. Bremner and R. L. Mulvaney, "Urease Activity in Soils," Soil Enzymes 5, R. G. Burns, editor, Academic Press, 149-195 (1978)]. In this modified procedure powdered mixtures of urea and test compounds were applied in narrow bands in the soil rather than being mixed throughout the soil. The banded configuration also results in concentration gradients of urea, urea hydrolysis products, test compounds, and test compound decomposition products similar to those in the immediate vicinity of urea granules containing the test compounds. Another advantage of the banded configuration compared with mixing throughout the soil is that slightly soluble test compounds can be easily band applied, whereas it is difficult to achieve a known degree of mixing of a small quantity of slightly soluble test compound with soil. The banded configuration also enables testing for urease inhibition under realistic soil conditions prior to the development of techniques for cogranulating a wide range of test compounds with urea.
A detailed description of the banded soil testing procedure follows. Urease-active soil (Hastings silt loam) was moistened to a moisture content of 20 percent dry weight basis) and preincubated at room temperature for two days. Plexiglas containers (6×6×6 cm) were half filled with soil and packed to a bulk density of 1.0 g/cm . Urea (410 mg) or urea (410 mg) plus inhibitor (41 mg, thoroughly mixed with the urea) was distributed in a narrow band about 0.5 cm wide and 6 cm long on the soil surface. The containers then were filled with soil, again packing to a bulk density of 1.0 g/cm^3. The containers were incubated at 25° C. for the desired reaction period, after which the containers were frozen to about -5° C. to stop urea hydrolysis. Immediately prior to extracting the remaining urea from the soil, said soil was allowed to thaw. Soil from each container was thoroughly mixed, and a 10-g sample was extracted with 100 ml of 2 M KCl containing phenylmercuric acetate to prevent urea hydrolysis during handling [L. A. Douglas and J. M. Bremner, Soil. Sci. Soc. Am. Proc. 34, 859-862 (1970)]. Urea in the extracts was determined colorimetrically as a measure of unhydrolyzed urea and the results expressed as percent unhydrolyzed urea-N.
^a The plexiglas containers measured 6 × 6 × 6 cm.
Hastings silt loam soil was utilized and packed to a bulk density of 1
gm/cm^3 dry basis. The soil was wet to near field capacity (20%
moisture) and 260 g of wetted soil (216 g dry soil) was added per
container. The containers were packed half full, urea and inhibitor were
added, and the remaining soil was added. The amount of urea added = 410 m

Structure (SMILES) | % inhibition (nitrification) ([1]; 1 week) [%] | Net mg NO2N ([1]; 1 week) [mg/container] | Net mg NO3N ([1]; 1 week) [mg/container] | % inhibition (nitrification) ([1]; 2 weeks) [%] | Net mg NO2N ([1]; 2 weeks) [mg/container] | Net mg NO3N ([1]; 2 weeks) [mg/container] | % inhibition (nitrification) ([1]; 3 weeks) [%] | Net mg NO2N ([1]; 3 weeks) [mg/container] | Net mg NO3N ([1]; 3 weeks) [mg/container] | % inhibition (nitrification) ([1]; 4 weeks) [%] | Net mg NO2N ([1]; 4 weeks) [mg/container] | Net mg NO3N ([1]; 4 weeks) [mg/container] | % inhibition (nitrification) ([1]; 5 weeks) [%] | Net mg NO2N ([1]; 5 weeks) [mg/container] | Net mg NO3N ([1]; 5 weeks) [mg/container] | Nitrite accumulation in the soil [1] | % unhydrolyzed urea-N ([3]; 3 days incubation at 25° C) | PPM urea-N ([3]; 3 days incubation at 25° C) [PPM] | % unhydrolyzed urea-N ([3]; 6 days incubation at 25° C) | PPM urea-N ([3]; 6 days incubation at 25° C) [PPM] | also measured
CC1(C)N(Cl)C(=O)N(Cl)C1(C)C [A, 1,3-dichloro-4,4,5,5-tetramethyl-2-imidazolidinone] |  |  |  |  |  |  |  |  |  |  |  |  |  |  |  |  |  |  |  |  | percent nitrification inhibition ([1]; separate experiment (Examples VII, IX): sampled only at end of 5-week incubation, no dicyandiamide comparison): 41.8%; % urease inhibition ([2]; inhibitor 1.440 x 10^-8 moles/experiment): 86%; % urease inhibition ([2]; inhibitor 2.160 x 10^-8 moles/experiment): 95%; % urease inhibition ([2]; inhibitor 4.320 x 10^-8 moles/experiment): 100%
CC1(C)N(Br)C(=O)N(Br)C1(C)C [AB, 1,3-dibromo-4,4,5,5-tetramethyl-2-imidazolidinone] | 100.0 | -0.05 | 0.0 | 100.0 | 0.04 | 0.0 | 100.0 | 0.03 | 0.0 | 100.0 | 0.82 | 0.0 | 98.3 | 2.63 | 3.1 | well within plant tolerance levels | 70.59% and 70.6% | 62.5 | 15.02% and 15.0% | 13.3 | 
N#CN=C(N)N [Dicyandiamide, dicyandiamide, reference compound] | 78.2 | 0.17 | 4.6 | 88.6 | 0.19 | 17.7 | 87.4 | 0.01 | 22.7 | 87.4 | 0.01 | 22.7 | 90.0 | -0.02 | 18.4 |  |  |  |  |  | % inhibition (nitrification) ([1]; 5 weeks, listed as dicyandiamide): 90%
CC1(C)COC(=O)N1Cl [I, 3-chloro-4,4-dimethyl-2-oxazolidinone] | 74.4 | 0.28 | 5.4 | 68.9 | 0.49 | 48.4 | 4.9 | 0.07 | 171.3 | -2.8 | 0.02 | 185.5 | -1.5 | -0.01 | 187.4 |  | 82.45% and 82.4% | 73.0 | 56.47% and 56.5% | 50.0 | % inhibition (nitrification) ([1]; 5 weeks, listed as 3-chloro-4,4-dimethyl-2-oxazolidinone): 0%; nitrification inhibition effect ([1]; after three weeks): almost completely exhausted
CC1(C)COC(=O)N1Br [IB, 3-bromo-4,4-dimethyl-2-oxazolidinone] | 100.0 | -0.02 | 0.0 | 100.0 | 0.06 | 0.0 | 100.0 | 0.12 | 0.0 | 100.0 | 0.52 | 0.0 | 99.6 | 2.64 | 0.8 | well within plant tolerance levels | 65.51% and 65.5% | 58.0 | 10.05% and 10.0% | 8.9 | % inhibition (nitrification) ([1]; 1 week, listed as 3-bromo-4,4-dimethyl-2-oxazolidinone): 100%
NP(N)(=O)Oc1ccccc1 [PPDA, Phenyl phosphorodiamidate, reference compound] |  |  |  |  |  |  |  |  |  |  |  |  |  |  |  |  | 94.31% and 94.3% | 83.5 | 58.73% and 58.7% | 52 | % urease inhibition ([2]; inhibitor 0.108 x 10^-8 moles/experiment): 99%; % urease inhibition ([2]; inhibitor 0.216 x 10^-8 moles/experiment): 100%
